Assay [1] deals with wheat seeds. Description: Seed soaking test: emergence rate and seedling stage of wheat seeds. It counts as in vivo, wheat variety "An Nong 0711". The note with it: seed soaking seed:drug solution=1:2, 20 minutes, after 40 days, compound sodium nitrophenolate at 0.05%, salicylic acid at 0.01%. The protocol:
Seed initiator composition 1 with a measured content of 0.06% (compound sodium nitrophenolate 0.05%, salicylic acid 0.01%, the balance water) was diluted 10 times to form seed initiator composition 2 with a content of 0.006% (compound sodium nitrophenolate 0.005%, salicylic acid 0.001%, the balance water). The seed initiator composition 2 was treated with 0.05% compound sodium nitrophenolate, 0.01% salicylic acid and distilled water as a control. The effect on […] seed vigor was determined according to the above compositions. The experimental wheat variety was “An Nong 0711”, and the experiment was carried out in the experimental base of Anhui Academy of Agricultural Sciences. Seed soaking is carried out according to the weight ratio of seed:drug solution=1:2. After soaking for 20 minutes, sowing in the shade and drying in the shade, the seedling emergence rate, plant height, root length and fresh weight are calculated after 40 days.

Assay [2] concerns Gaeumannomycesgraminisvar. tritici. Description: Mycelial growth assay (virulence test) of single agents and mixtures, Wadley method. It counts as cell-based. The note with it: mycelial growth on medicated medium, 25° C.; ratio G:D = silothiamine:coumoxystrobin. The protocol: The bactericidal properties of silthiopham and coumoxystrobin are analyzed in detail. First, the EC50 ([…]) of the two single compounds of silthiostrobin and coumoxystrobin is determined. According to the EC50 of the two single drugs, the combination ratio of the two drugs is determined according to the Wadley method, and synergy coefficient SR value according to Wadley.
The test target is Gaeumannomycesgraminisvar. tritici, which causes wheat rot disease, but it is not limited to this. Silthiopham and coumoxystrobin are taken and prepared into a liquid plate about 15 ml per dish. At the edge of the pre-cultured colony, a 5 mm diameter hyphae block is prepared with a sterile puncher, and then transferred to different medium plates and cultured at 25° C. The test adopts the mycelial growth assay method, and prepares medicated medium according to different treatments. At the edge of the pre-cultured colony, a 5 mm diameter hyphae block is prepared with a sterile puncher, and then transferred to medium plates with different drug contents. […]
According to the Wadley method to evaluate the interaction of the mixture, the calculation formula is as follows: EC50(theoretical value)=(a+b)/(a/EC50a+b/EC50b), SR=EC50(theoretical value)/EC50(actual value). wherein, a and b are the content ratio of each component in the mixture, and the effect of mixing is analyzed by SR value. […]

This note sets out measurements from patent publication US11484031B2, “Seed coating agent for preventing and treating wheat rot disease” (Institute of Plant Protection and Agro-products Safety, …, priority 2020, dated 2022).

As for `O=C(O)c1ccccc1O` [Salicylic acid], the “Fresh weight (10 plants, g)” value in assay [1] (10 plants) was 1.28 ± 0.17 g. Also, in assay [1], the Emergence rate is given as 83.8%, the Plant height was found to be 10.5 ± 1.7 cm and the Root length amounted to 4.8 ± 1.3 cm.

On to `CCCCc1c(C)c2ccc(OCc3ccccc3/C(=C\OC)C(=O)OC)cc2oc1=O` [Coumoxystrobin(D), (E)-2-(2-(3-n-butyl-4methyl-coumarin-7-yloxy)methylphenyl)-3-methoxy Methyl acrylate], for which the EC50 in assay [2] is listed as 2.3127 ppm.

With `C=CCNC(=O)c1c([Si](C)(C)C)sc(C)c1C` [Silothiamine(G), N-allyl-4,5-dimethyl-2-(trimethylsilyl) thiophene-3-carboxamide], the EC50 in assay [2] amounted to 0.6893 ppm.
